Here are results for ten molecules from patent US12064514B2, “Ultrasound-sensitive peptide particles for spatially resolved molecule delivery” (The Penn State Research Foundation, priority 2017, dated 2024).

Data set [1] concerns green fluorescent protein (GFP). Briefly: screening of fluorine-containing cargo solubilizing agents for GFP dispersion in perfluorocarbon. The following applies: for GFP dispersion efficiency: in PFH, after resuspension in aqueous buffer.
Experimental: For each condition, 200 ul of compounds+PFH was aliquoted into an Eppendorf tube containing individually dried GFP stocks (1 uM) for 9 replicates. Each tube was parafilmed, vortexed, placed on VWR tube rotator overnight at 4° C., and then centrifuged for 5 min at 4000 rpm. Next, 100 ul of each sample was aliquoted onto a black bottom 96-well plate for fluorescence scan from 500 to 560. The 96-well plate was then placed in 37° C. overnight to dry the PFH. The dry samples were resuspended in 100 ul PBS and scanned for fluorescence using BioTek Cytation 3 imaging reader. […] Here, PFH is used as a surrogate for the penultimate solvent perfluoro-n-pentane (PFP) used to form the peptisome core, as PFP has a low boiling point and low surface tension, making it difficult to use in these screening experiments.
Fluorine-containing cargo solubilizing agent #6 (perfluorononanoic acid, PNFA) was dissolved at various concentrations in PFH to achieve molar ratios with GFP at 400:1 to 50,000:1 fluorine-containing cargo solubilizing agent-to-GFP. For this molar ratio screening, PFNA was vortexed and sonicated to dissolve into PFH at 0.4, 2, 50, and 100 mM. For each condition, 200 ul of PFNA+PFH was aliquoted into an Eppendorf tube containing individually dried GFP (1 uM) for 9 replicates. Each tube was parafilmed, vortexed, placed on VWR tube rotator overnight at 4° C., and then centrifuged for 5 min at 4000 rpm. Next, 100 ul of each sample was aliquoted onto a black bottom 96-well plate for fluorescence scan from 500 to 560. The 96-well plate was then placed in 37° C. overnight to dry the PFH. The dry samples were resuspended in 100 ul PBS and scanned for fluorescence using BioTek Cytation 3 imaging reader.
For PFH and PFP solvent comparison, 2 mM PFNA was vortexed and sonicated to dissolve into either PFH or PFP on ice. For each condition, 200 ul of adjuvant/PFH or adjuvant/PFP was aliquoted into an Eppendorf tube containing individually dried GFP stocks (1 uM) for 3 replicates. Each tube was parafilmed, vortexed, placed on VWR tube rotator overnight at 4° C., and then centrifuged for 5 min at 4000 rpm. Next, 100 ul of each sample was aliquoted onto a black bottom 96-well plate for fluorescence scan from 500 to 560. The 96-well plate was then placed in 37° C. overnight to dry the PFH and PFP.
The target in a further data set is αVβ3 integrin (Homo sapiens, UniProt P05106+P06756). The following applies: read-out: binding affinity to αVβ3 integrin (IC50, conc. at which 50% of receptor is bound by ligand); cited from earlier work.
Chain of αVβ3 integrin (P06756 31-1048): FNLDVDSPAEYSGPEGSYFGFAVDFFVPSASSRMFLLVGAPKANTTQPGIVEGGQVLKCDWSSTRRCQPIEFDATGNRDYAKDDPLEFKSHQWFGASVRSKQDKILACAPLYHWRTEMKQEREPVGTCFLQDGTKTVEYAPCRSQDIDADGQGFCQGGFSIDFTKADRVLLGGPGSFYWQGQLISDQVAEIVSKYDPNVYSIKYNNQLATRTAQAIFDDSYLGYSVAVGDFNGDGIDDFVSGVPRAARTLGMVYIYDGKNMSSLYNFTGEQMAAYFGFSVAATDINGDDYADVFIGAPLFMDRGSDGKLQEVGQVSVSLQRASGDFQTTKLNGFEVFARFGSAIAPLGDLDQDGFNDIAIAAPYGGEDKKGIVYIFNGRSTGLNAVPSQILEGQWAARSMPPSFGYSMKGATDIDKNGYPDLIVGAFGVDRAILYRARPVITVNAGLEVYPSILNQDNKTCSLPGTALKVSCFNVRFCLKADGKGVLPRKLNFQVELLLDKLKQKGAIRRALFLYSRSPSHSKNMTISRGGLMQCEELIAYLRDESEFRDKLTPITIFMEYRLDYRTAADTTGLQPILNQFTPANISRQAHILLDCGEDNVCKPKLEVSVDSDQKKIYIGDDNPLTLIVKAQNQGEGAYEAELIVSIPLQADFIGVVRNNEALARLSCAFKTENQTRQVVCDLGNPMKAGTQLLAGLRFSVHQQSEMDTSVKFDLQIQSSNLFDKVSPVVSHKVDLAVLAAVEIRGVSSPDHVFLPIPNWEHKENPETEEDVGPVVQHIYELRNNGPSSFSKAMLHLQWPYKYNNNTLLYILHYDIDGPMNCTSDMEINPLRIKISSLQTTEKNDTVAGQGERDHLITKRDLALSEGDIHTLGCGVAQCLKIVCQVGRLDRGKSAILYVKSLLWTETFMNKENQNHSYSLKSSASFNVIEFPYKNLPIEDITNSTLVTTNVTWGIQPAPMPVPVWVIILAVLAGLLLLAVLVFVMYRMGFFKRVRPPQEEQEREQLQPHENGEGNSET
Chain of αVβ3 integrin (P05106 27-788): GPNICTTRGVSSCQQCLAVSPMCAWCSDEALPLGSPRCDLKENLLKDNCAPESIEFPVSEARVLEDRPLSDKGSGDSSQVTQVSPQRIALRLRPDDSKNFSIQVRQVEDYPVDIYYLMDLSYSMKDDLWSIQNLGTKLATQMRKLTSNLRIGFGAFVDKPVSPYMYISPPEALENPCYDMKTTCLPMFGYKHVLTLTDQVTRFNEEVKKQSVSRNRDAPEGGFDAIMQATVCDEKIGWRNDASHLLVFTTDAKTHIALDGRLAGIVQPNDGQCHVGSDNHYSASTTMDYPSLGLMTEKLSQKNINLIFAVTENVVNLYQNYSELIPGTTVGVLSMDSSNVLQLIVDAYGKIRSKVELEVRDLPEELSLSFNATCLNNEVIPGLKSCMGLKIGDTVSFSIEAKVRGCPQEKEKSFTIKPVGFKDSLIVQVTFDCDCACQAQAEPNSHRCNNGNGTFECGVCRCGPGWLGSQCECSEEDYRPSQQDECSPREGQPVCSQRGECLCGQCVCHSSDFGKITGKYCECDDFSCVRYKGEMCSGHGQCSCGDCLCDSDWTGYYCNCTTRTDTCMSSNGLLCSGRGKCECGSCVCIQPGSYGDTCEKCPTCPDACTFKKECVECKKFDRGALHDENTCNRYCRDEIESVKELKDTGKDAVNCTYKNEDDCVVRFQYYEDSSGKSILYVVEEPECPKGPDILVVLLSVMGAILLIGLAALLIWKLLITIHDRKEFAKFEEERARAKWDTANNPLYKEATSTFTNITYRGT

In the case of `FC(F)(F)C(F)(F)C(F)(F)C(F)(F)C(F)(F)C(F)(F)C(F)(F)C(F)(F)C(F)(F)C(F)(F)C(F)(F)C(F)(F)C(F)(F)C(F)(F)F` [Compound 2, perfluoroteradecane], the GFP dispersion efficiency in data set [1] is recorded as 5.1%.
In the case of `O=C(O)C(F)(F)C(F)(F)C(F)(F)C(F)(F)F` [Compound 5, perfluoropentanoic acid], in data set [1], the GFP dispersion efficiency is 4.3%.
For `O=C(O)C(F)(F)C(F)(F)C(F)(F)C(F)(F)C(F)(F)C(F)(F)C(F)(F)C(F)(F)F` [Compound 6, perfluorononanoic acid], in data set [1], the “protein dispersed within PFH compared to compound 5” value is recorded as “approximately 10 fold” and the GFP dispersion efficiency is listed as 39.3%. In addition, the “protein dispersion with PFP compared to PFH” value in data set [1] (2000:1 molar ratio) was “no significant difference”. Further, in data set [1] (molar ratios of 2,000 to 10,000:1 agent-to-GFP), the “total GFP loading efficiency into PFH” value is ~63%.
For orientation: IC50 means the concentration at which inhibition is half-maximal. For GRGD, the IC50 on αVβ3 integrin was 55 ± 7 nM.
As for GRGDNP, the IC50 on αVβ3 integrin is 45 ± 12 nM.
With GRGDS, the IC50 on αVβ3 integrin is 28 ± 3 nM.
For GRGDSPK, the IC50 on αVβ3 integrin was 12.2 ± 0.1 nM.
On to GRGDTP, for which the IC50 on αVβ3 integrin was 28 ± 5 nM.
As for RGD, the IC50 at αVβ3 integrin was 89 ± 12 nM.
As to RGDS, the IC50 at αVβ3 integrin was 45 ± 5 nM.
